Legend:
[1] = test system: aortic rings (angiogenic sprouting / microvessel formation); experiment: ex vivo rat aortic ring angiogenesis assay; type: cell-based, Sprague Dawley rats; settings: for % Inhibition (microvessel density) / Microvessel Density (pixel^2): day 10; for Microvessel Density (pixel^2): 5 aortic rings, ECGS as inducer; for anti-angiogenic effect (in words): rat aortic ring assay, 1, 10, and 100 μM
Excerpt: The effect of racemic menthol propyleneglycol-carbonate on angiogenesis was studied by culturing aortic explants in three-dimensional matrix gels according to the procedure of Kruger and Figg (Kruger E. A. and Figg, W. D. Protein Binding Alters the Activity of Suramin, Carboxyamidotriazole, and UCN-01 in an ex Vivo Rat Aortic Ring Angiogenesis Assay Clinical Cancer Research 7:1867-1872, 2001). Thoracic aortas were excised from 8-week-old mail Sprague Dawley rats and the fibroadipose tissue was removed. The aortas were sectioned into 1-mm-long cross-sections, rinsed with Human Endothelial-SFM (GIBCO), placed on the Matrigel-coated wells, covered with additional 50 μl Matrigel, and allowed to gel for more than 30 min at 37° C., 5% CO2. All the rings were cultured in Human Endothelial-SFM (GIBCO) supplemented with […] of ECGS (Endothelial Cell Growth Supplement, Sigma) as an angiogenesis inducer. Racemic menthol propylene-carbonate diluted with enthanol was added to the culture medium at final concentrations of 1, 10, and 100 μM. Ethanol alone (1%) was added to the culture medium as a vehicle control. All assays were performed by using 5 aortic rings per sample. Aortic rings were photographed on day 10. The area of angiogenic sprouting was calculated using Image-Pro Plus software (Media Cybernetics). Microvessel densities are reported in square pixels.

Ha-CaT cells = experiment: cell cytotoxicity assay, XTT; type: cell-based; settings: for Cell Viability (%): 48 hours, Ha-CaT
Procedure: 5×10^3 Ha-CaT cells were plated in each well of 96 well plates and racemic menthol propyleneglycol-carbonate was added at various concentrations. The plates were incubated for another 48 hours and the viable cells were measured by XTT Cell Proliferation Kit (Roche). More than 70% of Ha-CaT cells were viable even at high concentration of 100 μM.

[2] = test system: TPA-induced inflammatory response (mouse ear edema); experiment: TPA-induced mouse ear edema, topical application; type: in vivo, mice; settings: for anti-inflammatory effect (in words): TPA-induced inflammatory response, topical; for Anti-inflammatory Effect (% of control): reduction in ear thickness vs control group
Procedure: Edema was induced in mice by topical application of 10 μl of TPA (Tetradecnoylphorbol acetate) in acetone (2.5 μg/ear) to both the inner and outer surface of one ear of each mouse used in the experiment. Each test compound, diluted with acetone to a concentration of 10% was applied topically to the inflamed mouse ear immediately after TPA application, so as to deliver 2.5 mg/ear. The reference drug, indomethacin (0.5 mg/ear), was administered as a positive control. The thickness of each ear was measured before treatment and 4 hours after induction of inflammation, using a micrometer (Mitutoyo Co.). Anti-inflammatory effect was expressed as the reduction in ear thickness with respect to the control group.

[3] = test system: HUVE (Human Umbilical Vein Endothelial) cells; experiment: HUVE cell proliferation in the presence of bFGF, XTT; type: cell-based; settings: 48 hours; for Proliferation (%): bFGF only = 100, no bFGF = 0; for Average (relative cell number, XTT): with bFGF
Procedure: HUVE (Human Umbilical Vein Endothelial) cells were isolated from human umbilical cord veins by a method of Jaffe et al. (Jaffe, E. A., Nachman, R. L., Becker, C. G., and Minick, C. R. Culture of Human endothelial cells derived from umbilical veins. J. Clin. Invest. 52: 2745-2756, 1973). HUVE cells were confirmed by immunostaining with antibody against factor VIII. The cells were grown in M199 medium (Gibco BRL, Grand Island, N.Y.) supplemented with 10% fetal bovine serum, 100 units/mL penicillin, 100 μg/mL streptomycin, 50 μg/mL endothelial cell growth supplement, and 5 units/mL heparin at 37° C. in an atmosphere of 5% CO2-95% air.
1×10^4 HUVE cells were plated in each well of 96 well plates and five different concentrations ranging from 1 to 100 of racemic menthol propyleneglycol-carbonate were tested in the presence of bFGF used as maximum proliferation control. Cells were cultured for an additional 48 hours, and relative cell numbers in each well were determined by XTT Cell Proliferation Kit (Roche).

[4] = 2.5 mg/ear topical (10% in acetone), 4 hours after TPA 2.5 μg/ear

CC(O)COC(=O)OC1CC(C)CCC1C(C)C (racemic) [racemic menthol propyleneglycol-carbonate]
% Inhibition (microvessel density) ([1]; 1 uM): 15%
Microvessel Density (pixel^2) ([1]; 1 uM): 13.4 ± 4.1 pixel^2
% Inhibition (microvessel density) ([1]; 10 uM): 22%
Microvessel Density (pixel^2) ([1]; 10 uM): 12.2 ± 2.5 pixel^2
% Inhibition (microvessel density) ([1]; 100 uM): 33%
Microvessel Density (pixel^2) ([1]; 100 uM): 10.6 ± 3.8 pixel^2
anti-angiogenic effect (in words) [1]: Satisfactory anti-angiogenic effect
anti-angiogenic effect (in words) ([1]; listed as racemic menthol propylene-carbonate): inhibited microvessel formation in rat aortic ring assay in a dose dependent manner
Cell Viability (%) (Ha-CaT cells; 0.1 uM): 100%
Cell Viability (%) (Ha-CaT cells; 1.0 uM): 100%
Cell Viability (%) (Ha-CaT cells; 5.0 uM): 96.5%
Cell Viability (%) (Ha-CaT cells; 10.0 uM): 96.3%
Cell Viability (%) (Ha-CaT cells; 50.0 uM): 81.8%
cytotoxic effect on normal cells (in words) (Ha-CaT cells; Ha-CaT cells, up to 100 μM): non-toxic against normal cells
anti-inflammatory effect (in words) [2]: Satisfactory anti-inflammatory effects
Anti-inflammatory Effect (% of control) [2, 4]: 23 % of control
Proliferation (%) ([3]; 1 μM): 97.6%
Average (relative cell number, XTT) ([3]; 1 μM): 1.0623
Proliferation (%) ([3]; 5 μM): 93.9%
Average (relative cell number, XTT) ([3]; 5 μM): 1.0305
Proliferation (%) ([3]; 10 μM): 95.3%
Average (relative cell number, XTT) ([3]; 10 μM): 1.0425
Proliferation (%) ([3]; 50 μM): 97.6%
Average (relative cell number, XTT) ([3]; 50 μM): 1.0621
Proliferation (%) ([3]; 100 μM): 80.0%
Average (relative cell number, XTT) ([3]; 100 μM): 0.9121

CC1CCC(C(C)C)C(OCC(O)CO)C1 (centres unmarked) [menthoxy-propane-1,2-diol]
anti-inflammatory effect (in words) [2]: Satisfactory anti-inflammatory effects
Anti-inflammatory Effect (% of control) [2, 4]: 27 % of control

COc1ccc2c(c1)c(CC(=O)O)c(C)n2C(=O)c1ccc(Cl)cc1 [Indomethacin, reference compound]
Anti-inflammatory Effect (% of control) ([2]; positive control, 0.5 mg/ear, 4 hours after TPA): 96 % of control

C=C(C)C1CCC(C)CC1OC(=O)OCC(C)O (centres unmarked) [isopulegol propyleneglycol-carbonate]
anti-inflammatory effect (in words) [2]: Satisfactory anti-inflammatory effects
Anti-inflammatory Effect (% of control) [2, 4]: 33 % of control

CC1CCC(C(C)C)C(O)C1 (centres unmarked) [(l)-Menthol, reference compound]
anti-inflammatory effect (in words) [2]: no appreciable anti-inflammatory effect
Anti-inflammatory Effect (% of control) [2, 4]: 0 % of control

CC1CCC(C(C)C)C(OC(=O)OCCCCCCCCCO)C1 (centres unmarked) [menthyl-9-hydroxynonyl-carbonate]
anti-inflammatory effect (in words) [2]: Satisfactory anti-inflammatory effects
Anti-inflammatory Effect (% of control) [2, 4]: 45 % of control

Reference: US20090203776A1, “METHODS OF USING MENTHOL PROPYLENEGLYCOL-CARBONATE AND ANALOGS THEREOF FOR PRODUCING ANTI-INFLAMMATORY AND ANTI-ANGIOGENIC EFFECTS” (priority 2004, published 2009)
